{
  "source": "patent US11136348B2",
  "about": "“Furostan-3-ol derivatives as skeletal muscle hypertrophic agents” (EMMYON, INC., priority 2015, dated 2021)",
  "key": {"C2C12 skeletal myotubes": {"test_system": "C2C12 skeletal myotubes", "assay": "Total cellular protein content in C2C12 skeletal myotubes (BCA)", "assay_type": "cell-based, Mouse", "settings": "48 h incubation, vs vehicle (0.1% DMSO)", "procedure": "The compounds were tested in a well-established in vitro model of skeletal muscle, namely fully differentiated, post-mitotic C2C12 skeletal myotubes. Mouse C2C12 myoblasts may be obtained from ATCC (CRL-1772) and maintained at 37° C. and 5% CO2 in Dulbecco's modified Eagle's medium (ATCC #30-2002) containing antibiotics (100 units/mL penicillin, […] streptomycin sulfate) and 10% (v/v) fetal bovine serum (FBS). Myoblasts were set up for experiments on day 0 in 6-well plates at a density of 2.5×10^5 cells/well. On day 2, myoblasts were induced to differentiate into myotubes by replacing 10% FBS with 2% horse serum (HS). On day 7, myotubes were rinsed once with PBS, and then 2% HS was replaced with 10% FBS. The vehicle (0.1% DMSO) or varying concentrations of test compound were added directly to the media. After 48 h incubation, myotube protein content and size were measured.\nTo determine myotube protein content, myotubes were washed with ice cold PBS, scraped into lysis buffer (10 mM Tris-HCl, pH 7.6, 100 mM NaCl, and 1% (w/v) SDS, complete Mini protease inhibitor cocktail (Roche), and a 1:100 dilution of phosphatase inhibitor cocktail 3 (Sigma)), and then lysed with 10 passes through a 22-gauge needle. An aliquot of each myotube lysate sample was then used to determine protein concentration by the BCA kit (Pierce). […] To determine myotube size, myotubes were subjected to immunofluorescence staining with anti-troponin primary antibody and a fluorescent secondary antibody. Myotubes were then imaged on an Olympus IX-71 microscope equipped with a DP-70 camera and epifluorescence filters. Image analysis was performed using ImageJ software."}, "[1]": {"test_system": "Male C57BL/6 mice, tibialis anterior (TA) muscle", "assay": "Mouse model of muscular atrophy: unilateral tibialis anterior immobilization", "assay_type": "in vivo", "settings": "10 mg/kg i.p. twice a day for 7 days; 6 days TA immobilization; immobilized TA weight normalized to contralateral mobile TA; 12-13 mice", "procedure": "Compounds of the invention were also tested in vivo in an established mouse model for muscular atrophy. Male C57BL/6 mice (8-10 weeks old) were administered i.p. injections of vehicle (corn oil) or 10 mg/kg test compound twice a day for 7 days. After 1 day of i.p. injections, one tibialis anterior (TA) muscle in each mouse was immobilized with a metal clip to induce skeletal muscle atrophy, as described previously (Dyle et al., Journal of Biological Chemistry 289: 14913-14924, 2014). In each mouse, the contralateral TA muscle remained mobile and served as a non-atrophied intrasubject control. After 7 days of i.p injections (6 days of unilateral TA immobilization), bilateral TA muscles were harvested and weighed. In each mouse, the amount of skeletal muscle loss in the immobilized TA muscle was determined by normalizing the weight of the immobilized TA muscle to the weight of the contralateral mobile (control) TA muscle. The data below are means ±SEM from 12-13 mice per condition. table: […]"}},
  "data": [
    {"molecule": "CC1=C(CC[C@H](C)CN)O[C@H]2C[C@H]3[C@@H]4CC[C@H]5C[C@@H](O)CC[C@]5(C)[C@H]4CC[C@]3(C)[C@@H]12.Cl", "note": "[Example 3, (2aS,4S,6aS,6bS,8aS,8bS,11aS,12aS,12bR)-10-((S)-4-Amino-3-methylbutyl)-6a,8a,9-trimethyl-2,2a,3,4,5,6,6a,6b,7,8,8a,8b,11a,12,12a,12b-hexadecahydro-1H-naphtho[2′,1′:4,5]indeno[2,1-b]furan-4-ol hydrochloride]", "values": [
      {"measurement": "Percent Change in Total Protein", "setting": "C2C12 skeletal myotubes; 0.03 μM", "result": "3.8 ± 1.8", "unit": "%"},
      {"measurement": "Percent Change in Total Protein", "setting": "C2C12 skeletal myotubes; 0.1 μM", "result": "6.7 ± 2.4", "unit": "%"},
      {"measurement": "Percent Change in Total Protein", "setting": "C2C12 skeletal myotubes; 0.3 μM", "result": "9.2 ± 2.4", "unit": "%"},
      {"measurement": "Percent Change in Total Protein", "setting": "C2C12 skeletal myotubes; 1 μM", "result": "16.4 ± 1.3", "unit": "%"},
      {"measurement": "Percent Change in Total Protein", "setting": "C2C12 skeletal myotubes; 3 μM", "result": "17.9 ± 0.7", "unit": "%"},
      {"measurement": "% Muscle Loss (Mean ± SEM)", "setting": "[1]", "result": "8.3 ± 1.9", "unit": "%"}
    ]}
  ]
}
